Entries after “also recorded” stand apart in the source; their conditions may differ. Structures can show the parent of a compound that is named as a salt.
Experiments:
PDGF-B = assay: quantitative RT-PCR of PH-causing genes in DMOG-treated HLMVECs: PDGF-B; assay type: cell-based, human; details: 24 h, mean±SD
Experimental: (§1) Regarding Table 2, human lung microvascular endothelial cells (ECs) were treated with 2-Dimethyloxalylglycine (DMOG, PHD inhibitor) and either vehicle (DMSO) or various HIF inhibitors for 24 h. RNA was isolated for quantitative RT-PCR analysis.

Endothelin-1 = assay: quantitative RT-PCR of PH-causing genes in DMOG-treated HLMVECs: Endothelin-1; assay type: cell-based, human; details: 24 h, mean±SD
Experimental: as §1

SDF1 = assay: quantitative RT-PCR of PH-causing genes in DMOG-treated HLMVECs: SDF1; details: 24 h, mean±SD
Experimental: as §1

HIF-2α [1] = target: T1, HIF-2α (Homo sapiens, UniProt Q99814); assay: HRE-luciferase activity in stable HRE/luciferase-expressing 786-O cells; assay type: cell-based; details: for HRE luciferase activity (HIF activity), result in words: stable HRE-luciferase 786-O cells
T1 construct: endogenous in cells; host or cells: 786-O cells stably expressing HRE-luciferase
Experimental: HRE, hypoxia-responsive element.
FIG. 5. […] PBS was used in CTL and compound C76 was used as a positive control. **, P<0.01, ****, P<0.0001. Student t test.
FIG. 7. Ethacridine is a potent HIF-α inhibitor. To validate the inhibitory effect of Ethacridine, stable 786-O cells expressing HRE-Luciferase was treated with Ethacridine at the indicated concentration for 24 h. Luciferase activity was then measured and normalized to control vehicle (DMSO) group. Ethacridine at 5 uM could inhibited approximately 80% HRE activity, i.e., HIF activity. Data are expressed as mean±SD. […]

786-O cells = assay: control SV40-luciferase activity in 786-O cells (toxicity); assay type: cell-based, human; details: for SV40-Luc (of control): 2.5 uM; for control SV40 luciferase activity (cell toxicity), result in words: quinidine at the doses tested
HIF-2α [2] = assay: Western blotting of HIF-2α protein level; assay type: cell-based
MCT-challenged rats = assay: monocrotaline (MCT) rat model of pulmonary hypertension; assay type: in vivo
Experimental: (A) Representative micrographs of Russel-Movat pentachrome staining of MCT-rat lungs. […] (B) Quantification of PA wall thickness in MCT rat lungs. […] Lung sections were immunostained with anti-α-smooth muscle actin (α-SMA) antibody (red); nuclei were counterstained with DAPI (blue). […] Scale bars: 50 μm.
FIG. 6. […] At 14 days post-MCT challenge, the rats were treated with HEAQ (20 mg/kg, oral, daily) or PBS for another 14 days.
RVSP was measured (A) and RV hypertrophy was calculated (B) at 28 days post-treatment. […] One-way ANOVA.
At 14 days post-MCT challenge, the rats were treated with Propantheline (1.0 mg/kg, i.p., twice a day) and Ethacridine (7.5 mg/kg, i.p., twice a day) (P+E) at the same time for 14 days. A separate group of rats was treated with either Propantheline (2.5 mg/kg, i.p., twice a day). RVSP was measured (A) and RV hypertrophy was calculated (B) at 28 days post-treatment. […] One-way ANOVA.

[3] = target: human ether-à-go-go-related gene (hERG) channel (Homo sapiens, UniProt Q12809); details: from reference 21; read-out: hERG channel inhibition IC50; cited from earlier work
[4] = MCT rat lungs, quinidine s.c. osmotic pump 10-12 mg/kg/day, 14 days
[5] = MCT rats, quinidine s.c. osmotic pump 10-12 mg/kg/day, 14 days
[6] = MCT rats, quinidine s.c. osmotic pump 10-12 mg/kg/day, 14 days from 2 weeks post-MCT

T1 sequence (Q99814 whole entry): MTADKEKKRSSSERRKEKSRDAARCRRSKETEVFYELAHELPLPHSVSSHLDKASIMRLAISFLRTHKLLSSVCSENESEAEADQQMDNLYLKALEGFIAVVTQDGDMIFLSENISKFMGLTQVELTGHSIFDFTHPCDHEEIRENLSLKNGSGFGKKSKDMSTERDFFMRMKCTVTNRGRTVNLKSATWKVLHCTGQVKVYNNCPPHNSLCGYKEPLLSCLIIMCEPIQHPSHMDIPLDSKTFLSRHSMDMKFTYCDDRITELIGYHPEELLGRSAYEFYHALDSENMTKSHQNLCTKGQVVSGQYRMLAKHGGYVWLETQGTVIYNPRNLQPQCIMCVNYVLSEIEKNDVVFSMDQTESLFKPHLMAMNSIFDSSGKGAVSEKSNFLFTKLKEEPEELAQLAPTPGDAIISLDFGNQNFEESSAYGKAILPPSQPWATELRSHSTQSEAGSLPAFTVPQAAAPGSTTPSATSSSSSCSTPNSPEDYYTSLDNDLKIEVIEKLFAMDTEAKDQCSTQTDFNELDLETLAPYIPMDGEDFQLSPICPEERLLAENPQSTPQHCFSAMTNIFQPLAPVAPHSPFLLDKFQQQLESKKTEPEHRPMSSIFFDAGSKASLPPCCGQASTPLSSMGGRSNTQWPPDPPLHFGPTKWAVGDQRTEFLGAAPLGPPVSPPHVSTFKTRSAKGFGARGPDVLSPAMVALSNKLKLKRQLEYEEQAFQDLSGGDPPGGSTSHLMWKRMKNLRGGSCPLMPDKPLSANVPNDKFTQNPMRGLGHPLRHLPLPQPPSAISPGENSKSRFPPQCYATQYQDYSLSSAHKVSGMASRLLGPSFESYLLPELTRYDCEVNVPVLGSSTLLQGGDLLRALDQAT
Chain of human ether-à-go-go-related gene (hERG) channel (Q12809 whole entry): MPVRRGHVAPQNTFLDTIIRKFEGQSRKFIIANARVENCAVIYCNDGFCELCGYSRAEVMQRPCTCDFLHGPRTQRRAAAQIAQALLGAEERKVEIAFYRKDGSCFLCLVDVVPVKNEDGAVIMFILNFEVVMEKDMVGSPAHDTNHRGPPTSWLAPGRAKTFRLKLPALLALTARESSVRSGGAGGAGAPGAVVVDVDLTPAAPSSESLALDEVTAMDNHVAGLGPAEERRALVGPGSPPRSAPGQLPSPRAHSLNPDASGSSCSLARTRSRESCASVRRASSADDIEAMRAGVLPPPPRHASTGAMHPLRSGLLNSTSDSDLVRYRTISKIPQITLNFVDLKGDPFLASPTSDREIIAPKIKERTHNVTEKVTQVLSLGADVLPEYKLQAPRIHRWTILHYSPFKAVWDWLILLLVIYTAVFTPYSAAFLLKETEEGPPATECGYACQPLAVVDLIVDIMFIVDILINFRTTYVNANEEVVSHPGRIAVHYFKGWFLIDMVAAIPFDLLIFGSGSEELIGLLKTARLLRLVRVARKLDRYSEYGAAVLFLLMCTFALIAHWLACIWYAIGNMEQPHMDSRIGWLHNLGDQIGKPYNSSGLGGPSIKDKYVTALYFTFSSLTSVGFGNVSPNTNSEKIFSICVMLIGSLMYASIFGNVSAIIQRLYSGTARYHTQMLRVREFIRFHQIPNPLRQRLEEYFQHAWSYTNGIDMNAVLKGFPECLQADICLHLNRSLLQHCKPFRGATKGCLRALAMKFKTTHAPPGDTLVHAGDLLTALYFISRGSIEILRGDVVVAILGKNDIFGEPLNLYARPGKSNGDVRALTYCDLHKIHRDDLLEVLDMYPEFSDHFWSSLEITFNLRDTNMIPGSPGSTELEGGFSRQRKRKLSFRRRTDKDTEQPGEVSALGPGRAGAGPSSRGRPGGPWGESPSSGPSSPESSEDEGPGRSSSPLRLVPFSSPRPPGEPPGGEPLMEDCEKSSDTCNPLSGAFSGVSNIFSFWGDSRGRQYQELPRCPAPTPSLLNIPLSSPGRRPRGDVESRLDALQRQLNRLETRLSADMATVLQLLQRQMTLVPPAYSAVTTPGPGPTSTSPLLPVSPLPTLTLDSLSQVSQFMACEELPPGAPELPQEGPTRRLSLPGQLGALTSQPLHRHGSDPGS

Question: Which “PDGF-B expression (control = 1.00)” value (PDGF-B; 40 uM, DMOG alone 2.05 ± 0.33) does the source give for `CC(C)[N+](C)(CCOC(=O)C1c2ccccc2Oc2ccccc21)C(C)C.[Br-]` [Propantheline] here?
Answer: The value was 1.55 ± 0.44.

Question: And the “Endothelin-1 expression (control = 1.00)” value (Endothelin-1; 40 uM, DMOG alone 2.36 ± 0.23)?
Answer: Its value is 1.70 ± 0.45.

Question: What about the “SDF1 expression (control = 1.00)” value (SDF1; 40 uM, DMOG alone 1.80 ± 0.06) of the same compound?
Answer: Its value is 0.53 ± 0.37.

Question: What about the “SDF1 expression (control = 1.00)” value (SDF1; 40 uM, DMOG alone 1.80 ± 0.06, listed as propantheline) of the same compound?
Answer: The value was “mainly inhibited SDF-1 expression”.

Question: Which results are given for `CCc1c2c(nc3ccc(OC(=O)N4CCC(N5CCCCC5)CC4)cc13)-c1cc3c(c(=O)n1C2)COC(=O)[C@]3(O)CC` [Irinotecan, [(19S)-10,19-diethyl-19-hydroxy-14,18-dioxo-17-oxa-3,13-diazapentacyclo[11.8.0.0^2,11.0^4,9.0^15,20]henicosa-1(21),2,4(9),5,7,10,15(20)-heptaen-7-yl] 4-piperidin-1-ylpiperidine-1-carboxylate; hydrochloride]?
Answer: inhibition at 2.5 µM (HIF-2α [1]; 786-0, 786-O cells, 2.5 uM): 65 to 77%; HRE-Luc (of control) (HIF-2α [1]; 786-O cells, 2.5 uM): 0.23; HRE luciferase activity (HIF activity), result in words (HIF-2α [1]; 24 h): potent HIF α inhibitors; SV40-Luc (of control) (786-O cells; hydrochloride): 0.99; SV40-Luc (of control) (786-O cells; listed as irinotecan, hydrochloride): without clear toxicity

Question: Which inhibition at 2.5 µM (HIF-2α [1]; 786-0, 786-O cells, 2.5 uM) does the source give for `CC[N+](C)(CC)CCOC(=O)C1c2ccccc2Oc2ccccc21` [Methantheline] here?
Answer: The inhibition at 2.5 µM was 65 to 77%.

Question: And the “HRE-Luc (of control)” value (HIF-2α [1]; 786-O cells, 2.5 uM)?
Answer: The value was 0.31.

Question: What about the “HRE luciferase activity (HIF activity), result in words” value (from here on “HRE luciferase activity (HIF activity)”) (HIF-2α [1]; 24 h) of the same compound?
Answer: Its value is “potent HIF α inhibitors”.

Question: And the “SV40-Luc (of control)” value (786-O cells)?
Answer: The value was 0.86.

Question: And the “SV40-Luc (of control)” value (786-O cells; listed as methantheline)?
Answer: Its value is “without clear toxicity”.

Question: With `C=C[C@H]1C[N@]2CC[C@H]1C[C@@H]2[C@@H](O)c1ccnc2ccc(OC)cc12` [Quinidine, (2-Ethenyl-4-azabicyclo[2.2.2]oct-5-yl)-(6-methoxyquinolin-4-yl)-methanol] as the compound, how does the inhibition at 20 µM (HIF-2α [1]; 786-0, 786-O cells, 20 uM) read?
Answer: Its inhibition at 20 µM is roughly 70%.

Question: And the “HRE luciferase activity (HIF activity)” value (HIF-2α [1]; 24 h)?
Answer: The value was “repressed HRE luciferase (Luc) activity in a dose-dependent manner”.

Question: What about the “HRE luciferase activity (HIF activity)” value (HIF-2α [1]; 24 h, listed as quinidine) of the same compound?
Answer: The value was “inhibition of HRE/luciferase activity in a dose-dependent manner”.

Question: And the “control SV40 luciferase activity (cell toxicity), result in words” value (786-O cells)?
Answer: Its value is “didn't repress control SV40 luciferase activity”.

Question: What about the “control SV40 luciferase activity (cell toxicity), result in words” value (786-O cells; listed as quinidine) of the same compound?
Answer: The value was “without obvious toxicity”.

Question: What about the HIF-2α protein level (HIF-2α [2]) of the same compound?
Answer: The HIF-2α protein level was “didn't inhibit expression”.

Question: And the “expression of HIF-2α downstream target genes in lungs” value (MCT-challenged rats; MCT rat lungs, quantitative RT-PCR, quinidine vs vehicle)?
Answer: Its value is “normalized or markedly inhibited; also recorded: suppressed HIF-2α activation in MCT-rat lungs”.

Question: And the “muscularization of distal pulmonary arteries (<75 μm)” value (MCT-challenged rats; [4])?
Answer: Its value is “markedly attenuated; also recorded: Marked decrease in muscularization of distal pulmonary arterioles”.

Question: What about the “pulmonary artery wall thickening (pulmonary vascular remodeling)” value (MCT-challenged rats; [4]) of the same compound?
Answer: Its value is “markedly attenuated; also recorded: reversed pulmonary vascular remodeling”.

Question: And the “survival, result in words” value (MCT-challenged rats; MCT rats, Log-rank test)?
Answer: The value was “promoted survival”.

Question: What about the “PH (RVSP)” value (MCT-challenged rats; MCT rats, quinidine alone 10 mg/kg oral twice a day, 14 days) of the same compound?
Answer: The value was “didn't inhibit PH”.

Question: And the RV contractility (MCT-challenged rats; [5])?
Answer: Its RV contractility is “Improved RV contractility”.

Question: What about the “RV wall thickness (echocardiography)” value (MCT-challenged rats; [5]) of the same compound?
Answer: The value was “decreased RV wall thickness; also recorded: reduction in RV wall thickness”.

Question: What about the RV hypertrophy (MCT-challenged rats; [6]) of the same compound?
Answer: The RV hypertrophy was “marked decrease; also recorded: reduced”.

Question: What about the “right ventricular systolic pressure (RVSP)” value (MCT-challenged rats; [6]) of the same compound?
Answer: Its value is “marked decrease; also recorded: reduced RVSP”.

Question: And the survival rate (MCT-challenged rats; day 28 post-MCT challenge with a lethal dose, all vehicle rats had died)?
Answer: Its survival rate is 90%.

Question: Which results are given for hydroxyethylapoquinine [HEAQ]?
Answer: HRE luciferase activity (HIF activity), result in words (HIF-2α [1]; 24 h): could inhibit HIF activity as efficiently as Quinidine; PH (RVSP) (MCT-challenged rats; MCT rats, HEAQ 20 mg/kg oral daily for 14 days from 14 days post-MCT): attenuate PH; also recorded: markedly reduced RVSP; IC50 [3]: > 90 µM

Question: With `COc1cc([C@@H]2c3cc4c(cc3[C@@H](O[C@@H]3O[C@@H]5CO[C@@H](C)O[C@H]5[C@H](O)[C@H]3O)[C@H]3COC(=O)[C@H]23)OCO4)cc(OC)c1O` [Etoposide, (5S,5aR,8aR,9R)-5-[[(2R,4aR,6R,7R,8R,8aS)-7,8-dihydroxy-2-methyl-4,4a,6,7,8,8a-hexahydropyrano[3,2-d][1,3]dioxin-6-yl]oxy]-9-(4-hydroxy-3,5-dimethoxyphenyl)-5a,6,8a,9-tetrahydro-5H-[2]benzofuro[6,5-f][1,3]benzodioxol-8-one] as the compound, how does the “HRE-Luc (of control)” value (HIF-2α [1]; 786-O cells, 1.25 uM) read?
Answer: The value was 0.34.

Question: What about the “HRE luciferase activity (HIF activity)” value (HIF-2α [1]; 24 h) of the same compound?
Answer: The value was “potent HIF α inhibitors”.

Question: What about the “PDGF-B expression (control = 1.00)” value (PDGF-B; 20 & 40 uM, DMOG alone 2.05 ± 0.33) of the same compound?
Answer: The value was 0.77 ± 0.37.

Question: What about the “PDGF-B expression (control = 1.00)” value (PDGF-B; 20 & 40 uM, DMOG alone 2.05 ± 0.33, listed as etoposide) of the same compound?
Answer: Its value is “markedly inhibited”.

Question: What about the “Endothelin-1 expression (control = 1.00)” value (Endothelin-1; 20 & 40 uM, DMOG alone 2.36 ± 0.23) of the same compound?
Answer: The value was 0.47 ± 0.50.

Question: What about the “Endothelin-1 expression (control = 1.00)” value (Endothelin-1; 20 & 40 uM, DMOG alone 2.36 ± 0.23, listed as etoposide) of the same compound?
Answer: Its value is “markedly inhibited”.

Question: What about the “SDF1 expression (control = 1.00)” value (SDF1; 20 & 40 uM, DMOG alone 1.80 ± 0.06) of the same compound?
Answer: The value was 1.25 ± 0.80.

Question: Which inhibition at 2.5 µM (HIF-2α [1]; 786-0, 786-O cells, 2.5 uM) does the source give for `CCOc1ccc2nc3cc(N)ccc3c(N)c2c1` [Ethacridine, 7-ethoxyacridine-3,9-diamine] here?
Answer: Its inhibition at 2.5 µM is 70%.

Question: What about the inhibition at 5 µM (HIF-2α [1]; 786-0, 786-O cells, 5 uM, 24 h, read-out: inhibition of HRE activity, i.e., HIF activity) of the same compound?
Answer: Its inhibition at 5 µM is roughly 80%.

Question: And the “HRE luciferase activity (HIF activity)” value (HIF-2α [1]; 24 h)?
Answer: Its value is “potent HIF α inhibitors”.

Question: And the “PH (RVSP)” value (MCT-challenged rats; MCT rats, ethacridine alone 7.5 mg/kg i.p. twice a day, 14 days)?
Answer: Its value is “didn't inhibit PH”.

Question: What about the “PDGF-B expression (control = 1.00)” value (PDGF-B; 20 & 30 uM, DMOG alone 2.05 ± 0.33) of the same compound?
Answer: The value was 0.52 ± 0.31.

Question: And the “PDGF-B expression (control = 1.00)” value (PDGF-B; 20 & 30 uM, DMOG alone 2.05 ± 0.33, listed as ethacridine)?
Answer: Its value is “markedly inhibited”.

Question: What about the “Endothelin-1 expression (control = 1.00)” value (Endothelin-1; 20 & 30 uM, DMOG alone 2.36 ± 0.23) of the same compound?
Answer: The value was 0.12 ± 0.07.

Question: What about the “Endothelin-1 expression (control = 1.00)” value (Endothelin-1; 20 & 30 uM, DMOG alone 2.36 ± 0.23, listed as ethacridine) of the same compound?
Answer: Its value is “markedly inhibited”.

Question: What about the “SDF1 expression (control = 1.00)” value (SDF1; 20 & 30 uM, DMOG alone 1.80 ± 0.06) of the same compound?
Answer: Its value is 12.9 ± 8.1.

Question: And the “SDF1 expression (control = 1.00)” value (SDF1; 20 & 30 uM, DMOG alone 1.80 ± 0.06, listed as ethacridine)?
Answer: The value was “induced SDF-1 expression”.

From patent US20230310478A1, “METHODS AND COMPOSITIONS FOR THE TREATMENT OF PULMONARY HYPERTENSION AND CANCER” (Ann and Robert H. Lurie Children's Hospital of Chicago, priority 2020, published 2023)
